Laboratory results: patent publication US20030215788A1, “Cysteine thiol-protected peptides for use in immunoassays” (priority 1989, published 2003)
Where two headings read alike, the source gives them in different places.

Columns and labels:
Format in all cases: binding, human
Antibodies to HIV-1 [1] = settings: adsorbed on latex beads, absorbance at 405 nm
Antibodies to HIV-1 [2] = tested on: Antibodies to HIV-1
Method: The subject peptide compositions were immobilized onto latex beads and entrapped on a microporous membrane atop an absorbent material for the determination and/or quantitation of antibodies to HIV. Examples of such immunoassay apparatus and methods are the subject of U.S. Pat. Nos. 4,633,901 and 4,727,019, both incorporated herein by reference. The membrane concentration immunoassay involves three incubations comprising a total assay time of 10 minutes. Peptides tested were adsorbed to latex beads by the methods described above.
Each sample was tested on a filtration unit comprising three spots on a 1.2 μm pore size nylon membrane. One spot comprising the test peptide/latex bead preparation, one spot comprising a positive procedural control and the other comprising a negative procedural control.
The peptide/latex bead preparation was suspended in 0.1M Tris buffer, pH 7.2, 0.15M NaCl, 0.01M MgCl2, 10% sucrose, 2% fetal calf serum. Membranes were spotted with a 0.1-0.2% suspension of peptide/bead preparation. Negative procedural control spots were comprised of latex beads coated by adsorption with BSA. While positive procedural control spots were comprised of latex beads coated by adsorption with goat antihuman immunoglobulins.
Serum or plasma samples (40 μl) were diluted 1:10 in dilution buffer (10% heat inactivated normal goat serum, 1% dextran sulfate, 0.2% Tween 20, 2.5% nonfat dry milk, 15 ppm Kathon CG, 0.005% antifoam A, in 20 mM sodium citrate buffer, pH 7.4). Diluted specimen was added to the surface of the membrane and allowed to absorb completely. After waiting 2 min. from the time of specimen addition, 1 ml of wash buffer (0.01M Tris-buffered saline, pH 6.0, 0.05M NaCl, 0.005M MgCl2, 0.1% sodium azide, 10 μg/ml nitro blue tetrazolium, 0.5M potassium thiocyanate) was added and allowed to completely absorb through the membrane. About 0.150 ml (3 drops) of goat anti-human Ig-alkaline phosphatase conjugate diluted in 10 mM phosphate buffered saline, pH 7.4, 0.2% goat gamma globulin, 1% bovine serum albumin, 1 mM MgCl2, 0.1 mM ZnCl2 was added to the membrane and allowed to absorb completely. The membrane was washed twice as above (2 ml) and about 0.150 ml (3 drops) of substrate (1M 2-amino-2-methyl-1-propanol, pH 10.3, 5 mg/ml 3-indoxyl phosphate) was added and allowed to absorb completely. After about 5 min. about 1 ml of 0.5M EDTA, pH 7.4, was passed through the membrane to stop the reaction. After the stop solution was completely absorbed the units were read visually or semi-quantitatively by reflectance.

Antibodies to HIV-2 = experiment: EIA of dilutional series of HIV-2 positive sera
Method: Alternative methods of testing immunologic cross-reactivity were also used. In one such method L5 Peptides 39 and 39GC were tested by ELISA as previously described in U.S. Pat. No. 4,629,783. Briefly, stock solutions of peptides 39 and 39-GC were prepared in 6M Gu-HCl. Working dilutions of 20 µg/ml and 6 μg/ml respectively were prepared by dilution of stock solution 0 with 0.05M carbonate/bicarbonate buffer, pH 9.5. Wells of microtiter plates were filled with 100 μl of the working dilution of the peptides and allowed to stand overnight at room temperature. Coating solution was removed and 300 μl of blocking solution supra containing 0.5M ethanolamine was added for 1 hr. at room temperature. Blocking solution was removed and the plates were used immediately or allowed to dry and stored for later use.
Plasma samples were diluted (See Table 1) in sample dilution buffer (above) and 100 μl was added to individual wells. Samples were incubated for 30 min. at 37° C., then removed and the wells were washed six times with 0.15M NaCl, 0.05% Tween 20. One hundred microliters of goat antihuman Ig-horseradish peroxidase conjugate diluted in citrate buffer, pH 7.0, 1% normal goat serum was added to each well for 30 min at 37° C. prior to washing six times as above. The ELISA assay was developed by adding 100 μl/well of substrate solution (80 μg/ml tetramethyl benzidine, 0.0015% hydrogen peroxide in citrate/phosphate buffer, pH 6.0) for 30 min. at room temperature. Reactions were stopped with the addition of 100 μl of H2SO4 per well, and the ratio of the optical density at 450 nm to 630 nm was determined by an automated ELISA reader. The cutoff value for a positive result was set at 0.225 Absorbance Units above the average absorbance obtained for three known negative samples.
The immunoreactivity of HIV-2 peptides synthesized with protected cysteine thiol groups was determined. […] EIAs were performed as described above using viral lysates of HIV-1 and HIV-2 and peptides 39GC (HIV-1) and 41-2-3GC. Reactivity was determined for dilutions of two HIV-2 positive sera, F504282, obtained from a patient in New York, and “GOM,” provided by the Institut Pasteur.
The assays were EIAs performed generally as described above with varying dilutions of HIV-2 positive serum specimens.

Substance: Cys-Gly-Gly-Arg-Ile-Leu-Ala-Val-Glu-Arg-Tyr-Leu-Lys-Asp-Gln-Gln-Leu-Leu-Gly-Ile-Trp-Gly-Cys*-Ser-Gly-Lys-Leu-Ile-Cys*-NH2 [Peptide 39GC]
- immunological reactivity compared with Peptide 39 (Antibodies to HIV-1 [1]): substantial improvement over Peptide 39
- No. Positive/Total No. (Antibodies to HIV-1 [2]; Autoimmune Samples): 0/51
- No. Positive/Total No. (Antibodies to HIV-1 [2]; Normal Blood Bank Donors): 0/1187
- No. Positive/Total No. (Antibodies to HIV-1 [2]; Problematic HIV-I Seronegative Samples): 0/72
- No. Positive/Total No. (Antibodies to HIV-1 [2]; Secondary, Atypical Syphillis Sera/HIV Neg.): 0/26
- No. Positive/Total No. (Antibodies to HIV-1 [2]; Secondary, Atypical Syphillis Sera/HIV Pos.): 4/4
- No. Positive/Total No. (Antibodies to HIV-1 [2]; Western Blot Neg./LAV-EIA Pos.): 0/79
- No. Positive/Total No. (Antibodies to HIV-1 [2]; Western Blot Pos./LAV-EIA Pos. (OD < 1.5)): 120/120
- No. Positive/Total No. (Antibodies to HIV-1 [2]; Western Blot Pos./LAV-EIA Pos. (OD > 1.5)): 29/29
- No. Positive/Total No. (Antibodies to HIV-1 [2]; Western Blot p25 Neg./LAV/EIA Pos. (Atypical 1)): 0/39
- No. Positive/Total No. (Antibodies to HIV-1 [2]; Western Blot p25 Pos./LAV-EIA Pos. (Atypical 2)): 0/170
- Reactivity in EIA (Antibodies to HIV-2; HIV-2 positive serum F504282 (A), 1:5): 0.049
- Reactivity in EIA (Antibodies to HIV-2; HIV-2 positive serum F504282 (A), 1:10): 0.042
- Reactivity in EIA (Antibodies to HIV-2; HIV-2 positive serum F504282 (A), 1:20): 0.037
- Reactivity in EIA (Antibodies to HIV-2; HIV-2 positive serum F504282 (A), 1:40): 0.035
- Reactivity in EIA (Antibodies to HIV-2; HIV-2 positive serum F504282 (A), 1:80): 0.033
- Reactivity in EIA (Antibodies to HIV-2; HIV-2 positive serum F504282 (A), 1:160): 0.040
- Reactivity in EIA (Antibodies to HIV-2; HIV-2 positive serum F504282 (A), 1:320): 0.031
- Reactivity in EIA (Antibodies to HIV-2; HIV-2 positive serum F504282 (A), 1:640): 0.031
- Reactivity in EIA (Antibodies to HIV-2; HIV-2 positive serum F504282 (A), 1:1280): 0.039
- Reactivity in EIA (Antibodies to HIV-2; HIV-2 positive serum F504282 (A), 1:2560): 0.030
- Reactivity in EIA (Antibodies to HIV-2; HIV-2 positive serum F504282 (A), Neat): 0.075
- Reactivity in EIA (Antibodies to HIV-2; HIV-2 positive serum GOM (B), 1:2): 0.052
- Reactivity in EIA (Antibodies to HIV-2; HIV-2 positive serum GOM (B), 1:4): 0.037
- Reactivity in EIA (Antibodies to HIV-2; HIV-2 positive serum GOM (B), 1:8): 0.040
- Reactivity in EIA (Antibodies to HIV-2; HIV-2 positive serum GOM (B), 1:16): 0.031
- Reactivity in EIA (Antibodies to HIV-2; HIV-2 positive serum GOM (B), 1:32): 0.035
- Reactivity in EIA (Antibodies to HIV-2; HIV-2 positive serum GOM (B), 1:64): 0.074
- Reactivity in EIA (Antibodies to HIV-2; HIV-2 positive serum GOM (B), 1:128): 0.031
- Reactivity in EIA (Antibodies to HIV-2; HIV-2 positive serum GOM (B), 1:256): 0.035
- Reactivity in EIA (Antibodies to HIV-2; HIV-2 positive serum GOM (B), 1:512): 0.040
- Reactivity in EIA (Antibodies to HIV-2; HIV-2 positive serum GOM (B), 1:1024): 0.037
